A short description of data set [1]: Randomized, open-label, 2-way crossover pharmacokinetics and bioavailability study of oral vs intravenous baclofen. The class given is in vivo, human. As to conditions: for Cmax: healthy human volunteers; for Cmax / AUC: plasma; for Cmax / AUC0-∞/Dose / AUC: mean ± SD; for AUC: human. Here is the method: Twelve healthy human volunteers were recruited. The volunteers were medication free for 48 hours before, during, and 24 hours after the administration of the study drug.
The 12 volunteers participated in a randomized, open-label, 2-way crossover study to compare the pharmacokinetics and bioavailability of oral baclofen with an intravenous baclofen formulation. The oral formulation was a 10 mg baclofen tablet. A single intravenous dose of 5 mg was administered over 15 minutes, using the commercially available 2 mg/mL intrathecal baclofen formulation (Lioresal Intrathecal). Blood samples (6 mL) for the measurement of plasma concentrations of baclofen were collected in blood collection tubes containing K2 ethylenediaminetetraacetic acid at the following times: prior to dosing; at 5, 15, and 30 minutes; and at 1, 2, 4, 6, 8, 10, 12, and 24 hours after drug administration.
Study plasma samples were prepared by adding 50 μL of a 500 μg/mL levetiracetam solution (internal standard) to 250 μL of K2 ethylenediaminetetraacetic acid (EDTA) human plasma. Baclofen and the internal standard were extracted from plasma by precipitating the protein with methanol and drying it under nitrogen at approximately 40° C. The dried residues were reconstituted in 300 μL of a mobile phase consisting of 20 mM ammonium acetate—methanol (75:25) solution. After 1 minute of vortex mixing, the reconstituted sample solution was filtered and injected onto the high-performance liquid chromatograph-mass spectrometer system. Standard curve samples over a range of 20 to 400 ng/mL baclofen and quality control samples containing 30 (low), 80 (medium), and 240 ng/mL (high) baclofen were prepared and analyzed in triplicate along with the study samples. The assay was linear over the range 20-400 ng/mL with a lower limit of quantification of 20 ng/mL.
Baclofen concentration—time data were analyzed using a noncompartmental pharmacokinetic approach with Phoenix software (version 6.2; Pharsight Corporation, Mountain View, CA). The terminal rate constant (λz) was determined from the slope of the terminal log-linear portion of the plasma concentration—time curve, and the terminal half-life (t1/2) was calculated as ln 2/(λz). Maximum plasma concentrations (Cmax) and time to maximum concentration (Tmax) were determined by direct observation of the data. The area under the concentration-time curve to the last nonzero plasma concentration (Clast) that was above half the lower limit of quantification (10 ng/mL) was calculated by the trapezoidal rule and reported as AUClast. The area under the concentration-time curve extrapolated to infinity (AUC0-∞) was calculated as AUClast+(Clast/λz). Mean and standard deviation values for the parameters were also obtained using the descriptive statistics tool in Phoenix version 6.2. A paired t-test was used to determine if statistical differences existed in log normalized, dose-adjusted area under the curve between oral and intravenous arms.

The conditions of data set [2]: cited from earlier work.

Take `NCC(CC(=O)O)c1ccc(Cl)cc1` (racemic) [Baclofen, 4-amino-3-(4-chlorophenyl) butanoic acid]: the “time point of observed maximum baclofen concentration” value in data set [1] (5 mg IV over 15 minutes) was found to be 5 min. For the same molecule, the peak concentration (Cmax) (as a rule, the highest concentration seen after dosing) in data set [1] (5 mg IV over 15 minutes) worked out at 313 ng/mL; in data set [1] (10 mg oral tablet), 176 ng/mL. Also, the “AUC0-∞/Dose” value came to 141 ± 33 ng·h/mL/mg in data set [1] (5 mg IV) and 102 ± 23 ng·h/mL/mg in data set [1] (10 mg oral). Further, the Tmax (usually the time from dosing to the highest level) in data set [1] (10 mg oral tablet, median (min, max)) is 1 h. Besides, the area under the curve (AUC) (usually the area under the concentration-time curve, a measure of exposure) in data set [1] (5 mg IV) was 593 ± 111 ng·h/mL; in data set [1] (10 mg oral), 878 ± 199 ng·h/mL. In addition, in data set [2], the solubility in water result is recorded as “slightly soluble”.
